Experimental data from the supplement of paper PMC10307832.

Key:
Experiment in all cases: relative viability (nuclei count vs DMSO), 5 days (fraction); higher = more cells survive
[1] = compound: NCC(=O)Nc1ccc(-n2nc(C(F)(F)F)cc2-c2ccc3c(ccc4ccccc43)c2)cc1 + CC(=O)c1c(C)c2cnc(Nc3ccc(N4CCNCC4)cn3)nc2n(C2CCCC2)c1=O [Palbociclib] (partner 0.5 µM)
Outline: (§1)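 Relative viability equals treated-well nuclei counts divided by vehicle-well nuclei counts. Counts came from 4× images of lung cancer cell lines grown in 1536-well plates for 5 days after pin-tool dosing on the day after seeding. Dosing used one drug alone or a fixed anchor-drug dose plus five library-drug doses (not always all listed) in √10 steps, and values are medians of duplicate plates.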

[2] = compound: C1CSC2=C(C(=O)N1)SC3=C2C=C(C=C3)O [kb NB 142-70] + N=C(N)NC(=N)NCCc1ccccc1 [Phenformin] (partner 250 µM)
Outline: as §1

[3] = compound: NCC(=O)Nc1ccc(-n2nc(C(F)(F)F)cc2-c2ccc3c(ccc4ccccc43)c2)cc1 + CCNC(=O)c1noc(-c2cc(C(C)C)c(O)cc2O)c1-c1ccc(CN2CCOCC2)cc1 [Luminespib] (partner 0.01 µM)
Outline: as §1

[4] = compound: NCC(=O)Nc1ccc(-n2nc(C(F)(F)F)cc2-c2ccc3c(ccc4ccccc43)c2)cc1 + COc1cccc2cc(-c3nc([C@H]4CC[C@H](C(=O)O)CC4)n4ncnc(N)c34)[nH]c12 [OSI-027] (partner 0.5 µM)
Outline: as §1

UMC-11
relative viability ([1]; first compound 0.02 µM): 0.301
relative viability ([1]; first compound 0.06325 µM): 0.305
relative viability ([1]; first compound 0.2 µM): 0.297
relative viability ([1]; first compound 0.6325 µM): 0.325
relative viability ([1]; first compound 2 µM): 0.344
relative viability ([2]; first compound 0.1 µM): 0.338
relative viability ([2]; first compound 1 µM): 0.307
relative viability ([2]; first compound 3.162 µM): 0.251
relative viability ([3]; first compound 0.02 µM): 1.06
relative viability ([3]; first compound 0.06325 µM): 0.965
relative viability ([3]; first compound 0.2 µM): 1.05
relative viability ([3]; first compound 0.6325 µM): 0.948
relative viability ([3]; first compound 2 µM): 0.948
relative viability ([4]; first compound 0.02 µM): 0.402
relative viability ([4]; first compound 0.06325 µM): 0.475
relative viability ([4]; first compound 0.2 µM): 0.485
relative viability ([4]; first compound 0.6325 µM): 0.443
relative viability ([4]; first compound 2 µM): 0.453
